Assay results from patent US11246877B2, “Nanoparticles for chemotherapy, targeted therapy, photodynamic therapy, immunotherapy, and any combination thereof” (The University of Chicago, priority 2016, dated 2022).
Where two headings read alike, the source gives them in different places.

Columns and labels:
A2780/CDDP cells [1] = experiment: In vitro cytotoxicity of cisplatin, OTS167 and NCP-1/OTS167; assay type: cell-based
Method: The cytotoxicity of NCP-1/OTS167 with different molar ratio was then evaluated.

H69 cells = experiment: In vitro cytotoxicity of NCP-1/ET/siRNA in SCLC, MTS, 72 h; assay type: cell-based
Method: (§1) Small cell lung cancer (SCLC) cell lines H82 and H69 cells were seeded into 96-well plate at 2000 cells/well for 24 h. Afterwards, cells were treated by cisplatin, ET, cisplatin+ET, NCP-1, NCP-1/ET, and NCP-1/ET/siRNAs at various concentrations and incubated for another 72 h. The cell viability was then determined via MTS assay by microplate reader.

H82 cells [2] = experiment: as above; assay type: cell-based
Method: as §1

A2780/CDDP cells [3] = experiment: In vitro cytotoxicity in ovarian cancer cells, MTS, 72 h; assay type: cell-based
Method: (§2) A2780, A2780/CDDP, and SKOV-3 cells were seeded into 96-well plate at 2000 cells/well for 24 h. Afterwards cells were treated with free DHA or Zn/DHA at various concentrations and incubated for another 72 h. The cell viability was then determined via MTS assay by microplate reader.
(§3) A2780, A2780/CDDP, and SKOV-3 cells were seeded into 96-well plate at 2000 cells/well for 24 h. Afterwards cells were treated with different formulations at various concentrations and incubated for another 72 h. The cell viability was then determined via MTS assay by microplate reader.

MC38 cells [4] = experiment: In vitro cytotoxicity of NCP-3/DHA; assay type: cell-based, murine
Method: (§4) The cytotoxicity of NCP-3/DHA was evaluated against two colon cancer cell lines CT26 and MC38.

CT26 cells [5] = experiment: In vitro cytotoxicity of NCP-3/DHA; assay type: cell-based, murine
Method: as §4

SKOV-3 cells = experiment: In vitro cytotoxicity in ovarian cancer cells, MTS, 72 h; assay type: cell-based; conditions: Homo sapiens, SK-OV-3; SKOV-3, 72 h, DHA concentration; read-out: IC50 of DHA (numbers in parenthesis)
Method: as §2, §3

A2780 cells = experiment: as above; assay type: cell-based; conditions: Homo sapiens; A2780, 72 h, DHA concentration; read-out: IC50 of DHA (numbers in parenthesis)
Method: as §2, §3

MC38 cells [6] = experiment: In vitro cytotoxicity of NCP-2/DHA; assay type: cell-based, murine
Method: (§5) The cytotoxicity of NCP-2/DHA was evaluated against two colon cancer cell lines CT26 and MC38. […] The combination index (CI50) for the two drugs was lower than 1 in some drug effect levels, indicating the syngestic effect between two drugs.

CT26 cells [7] = experiment: In vitro cytotoxicity of NCP-2/DHA; assay type: cell-based, murine
Method: as §5

H82 cells [8] = experiment: In vitro cytotoxicity against small cell lung cancer cells, MTS, 96 h; assay type: cell-based; conditions: Homo sapiens, NCI-H82, etoposide concentration
Method: H82 cells seeded on 96-well plates at a density of 2000 cells/well were treated with Zn/ET and free etoposide at various etoposide concentrations for 96 h. The cell viability was then detected by MTS assay (Promega, Madison, Wis., United States of America) and the IC50 values were calculated accordingly. […] ET is likely released from Zn/ET via intracellular reduction by endogenous thiol groups as shown below in Scheme 9.

H460 cells = experiment: In vitro cytotoxicity against non-small cell lung cancer cells, MTS, 72 h; assay type: cell-based; conditions: Homo sapiens, NCI-H460
Method: H460 and A549 cells seeded on 96-well plates at a density of 2000 cells/well were treated with Zn/PTX and free PTX at various […] concentrations for 72 h. The cell viability was then detected by MTS assay (Promega, USA) and the IC50 values were calculated accordingly.

MC38 cells [9] = experiment: In vitro cytotoxicity of NCP-2/MTX; assay type: cell-based, murine; conditions: MC38, drug ratio 1:1; read-out: Oxaliplatin IC50
Method: (§6) The cytotoxicity of NCP-2/MTX was evaluated against two syngeneic cancer cell lines:colorectal adenocarcinoma CT26 and colorectal carcinoma MC38. By combining two chemotherapeutic agents with vastly different solubility requirements, NCP-2/MTX elicited substantial anticancer efficacy owing to synergy between the drugs. […] The combination index (CI50) for the two drugs was much more favorable for the 2:1 compared to 1:1 molar ratio, with equal Pt doses.

CT26 cells [10] = experiment: In vitro cytotoxicity of NCP-2/MTX; assay type: cell-based, murine; conditions: CT26, drug ratio 2:1; read-out: Oxaliplatin IC50
Method: as §6

CT26 cells [11] = experiment: Immunogenic cell death: cell surface CRT by flow cytometry; assay type: cell-based, murine; conditions: CT26, oxaliplatin 10 μM and/or DHA 20 μM, 24 h
Method: In Vitro Immunogenic Cell Death The immunogenic cell death induced by NCP-3/DHA was evaluated by flow cytometry and ELISA. For flow cytometry analysis, CT26 cells were seeded at 1×10^6 cells per well in 6-well plates and further cultured for 24 h. The culture media were replaced by 2 mL of fresh culture media containing 10% FBS. Oxaliplatin, DHA, chol-DHA, oxaliplatin+DHA, NCP-3, Zn/DHA and NCP-3/DHA were added to the cells, respectively, at equivalent oxaliplatin and/or DHA dose of 10 μM and 20 μM, respectively. Cells incubated with PBS served as control. Following incubation of 24 h, the cells were collected, incubated with AlexaFluor 488-CRT antibody for 2 h, and stained with PI. The samples were analyzed by flow cytometer (LSRII Orange, BD, Franklin Lakes, N.J., United States of America) to identify cell surface CRT. The fluorescence intensity of stained cells was gated on PI-negative cells.

MC38 cells [12] = experiment: In vitro cytotoxicity of NCP-2/PTX, MTS; assay type: cell-based, murine; conditions: MC38, drug ratio 1:1; read-out: Oxaliplatin IC50
Method: (§7) The cytotoxicity of NCP-2/PTX was evaluated against two colorectal cancer cells including murine colorectal adenocarcinoma CT26 and murine colorectal carcinoma MC38. By combining two chemotherapeutic agents with vastly different solubility requirements, NCP-2/PTX elicited substantial anticancer efficacy owing to synergy between the drugs.
(§8) The IC50 of oxaliplatin was substantially lower than that of paclitaxel by MTS assay, likely due to the hydrophobicity of paclitaxel. Paclitaxel was prepared in a stock solution of 3:1 ethanol:water ratio at 1 mg/ml before subsequent dilution to prepare free drug doses. The combination index (CI50) for the two drugs was much more favorable for the 1:1 compared to 2:1 molar ratio, with equal oxaliplatin doses.

CT26 cells [13] = experiment: In vitro cytotoxicity of NCP-2/PTX, MTS; assay type: cell-based, murine; conditions: read-out: Oxaliplatin IC50
Method: as §7, §8

CT26 cells [14] = experiment: In vitro PDT evoked immunogenic cell death (surface CRT); assay type: cell-based, murine; conditions: with or without irradiation, Pt 5 μM, pyrolipid 1.6 μM
Method: Calreticulin (CRT) is a distinct biomarker exposed on the surface of cells undergoing immunogenic cell death (ICD). The immunogenic cell death induced by NCP-2@pyrolipid was evaluated by immunofluorescence and flow cytometry. For immunofluorescence analysis, CT26 cells were seeded at 5×10^5 cells per well in 6-well plates and further cultured for 24 h. The culture media were replaced by 2 mL of fresh culture media containing 10% FBS. Oxaliplatin, NCP-2, NCP-2@pyrolipid, and porphysome were added to the cells, respectively, at an equivalent Pt dose of 5 μM and pyrolipid dose of 1.6 μM. Cells incubated with PBS served as control. After 24-h incubation, the cells were irradiated with LED light (670 nm) at 100 mW/cm^2 for 15 min (equal to 90 J/cm^2). Following further incubation of 4 h, the cells were washed with PBS three times, fixed with 4% paraformaldehyde, incubated with AlexaFluor 488-CRT antibody for 2 h, stained with DAPI, and observed under CLSM using 405 nm and 488 nm lasers for visualizing nuclei and CRT expression on the cell membrane, respectively. […] The samples were analyzed by flow cytometer (LSRII Orange, BD, Franklin Lakes, N.J., United States of America) to identify cell surface CRT. The fluorescence intensity of stained cells was gated on PI-negative cells.

CT26 cells [15] = experiment: In vitro PDT cytotoxicity; assay type: cell-based, murine; conditions: read-out: Oxaliplatin IC50
Method: (§9) The cytotoxicity of NCP-2@pyrolipid was evaluated against two colorectal cancer cells including murine colorectal adenocarcinoma CT26 and human colorectal adenocarcinoma HT29 cells. By combining chemotherapy of oxaliplatin and PDT modalities into one single nanoparticle, NCP-2@pyrolipid induces apoptosis/necrosis as well as elicit immunogenic cell death upon LED light irradiation. […] However, upon irradiation at 54 J/cm^2 light irradiation (670 nm), the oxaliplatin IC50 of NCP-2@pyrolipid was decreased by ˜4-fold and ˜5-fold in CT26 and HT29 cells, respectively.

CT26 cells [16] = experiment: Apoptosis/necrosis by Annexin V flow cytometry; assay type: cell-based, murine; conditions: CT26, 24 h, oxaliplatin concentration 10 μM
Method: CT26 cells seeded in 24-well plates at 1×10^5 cells/well were first incubated with NCP-3/DHA or appropriate controls for 24 h at an oxaliplatin concentration of 10 μM. The floating and adherent cells were collected and stained with Alexa Fluor 488 AnnexinV/dead cell apoptosis kit (Invitrogen, USA) according to manufacturer's instructions. The apoptosis and necrosis were examined by a flow cytometry (LSRII Blue, BD, Franklin Lakes, N.J., United States of America).

HT29 cells = experiment: In vitro PDT cytotoxicity; assay type: cell-based, human; conditions: read-out: Oxaliplatin IC50
Method: as §9

CT26 cells [17] = experiment: HMGB-1 release by ELISA; assay type: cell-based, murine; conditions: CT26, oxaliplatin 10 μM and/or DHA 20 μM, 48 h
Method: The release of high mobility group box-1 (HMGB-1) protein after ICD was evaluated by ELISA. CT26 cells were seeded at 1×10^6 cells per well in 6-well plates and further cultured for 24 h. The culture media were replaced by 2 mL of fresh culture media containing 10% FBS. Oxaliplatin, DHA, chol-DHA, oxaliplatin+DHA, NCP-3, Zn/DHA, NCP-3/DHA, and NCP-3/OA-DHA were added to the cells, respectively, at equivalent oxaliplatin and/or DHA dose of 10 μM and 20 μM, respectively. Cells incubated with PBS served as control. Following incubation of 48 h, the supernatant was collected and analyzed by an ELISA kit (Chondrex, Inc., Redmond, Wash., United States of America) by microplate reader.

[18] = Mus musculus, MC-38, MC38, DHA concentration, read-out: DHA IC50
[19] = Mus musculus, CT26, DHA concentration, read-out: DHA IC50
[20] = MC38, read-out: Oxaliplatin IC50
[21] = CT26, read-out: Oxaliplatin IC50

N.N.[Cl][Pt][Cl] [Cisplatin, cisplatin]
IC50 (A2780/CDDP cells [1]; cisplatin concentration, read-out: IC50, Cisplatin): 12.8 ± 0.19 µM
IC50 (H69 cells): 13.2 ± 0.35 µM
IC50 (H82 cells [2]): 7.93 ± 0.7 µM
IC50 (A2780/CDDP cells [3]; cisplatin concentration, read-out: IC50 of cisplatin): 19.8 ± 4.01 µM

C[C@H]1[C@@H](O)O[C@@H]2O[C@@]3(C)CC[C@H]4[C@H](C)CC[C@@H]1[C@@]24OO3 [DHA, dihydroartemisinin]
IC50 (MC38 cells [4]; [18]): 9.68 ± 1.12 µM
IC50 (CT26 cells [5]; [19]): 6.25 ± 1.53 µM
IC50 (SKOV-3 cells): 9.9 ± 0.34 µM
IC50 (A2780 cells): 0.3 ± 0.11 µM
IC50 (A2780/CDDP cells [3]; DHA concentration, read-out: IC50 of DHA (numbers in parenthesis)): 2.61 ± 0.18 µM
IC50 (MC38 cells [6]; [18]): 4.83 ± 1.12 µM
IC50 (CT26 cells [7]; [19]): 7.77 ± 2.68 µM

COc1cc([C@@H]2c3cc4c(cc3[C@@H](O[C@@H]3O[C@@H]5CO[C@@H](C)O[C@H]5[C@H](O)[C@H]3O)[C@H]3COC(=O)[C@H]23)OCO4)cc(OC)c1O [Etoposide]
IC50 (H69 cells; Homo sapiens, NCI-H69): 42.2 ± 0.61 µM
IC50 (H82 cells [2]; Homo sapiens, NCI-H82): 30.9 ± 0.37 µM
IC50 (H82 cells [8]): 8.83 ± 0.13 µM

CC(=O)c1cnc2ccc(-c3cc(Cl)c(O)c(Cl)c3)nc2c1N[C@H]1CC[C@H](CN(C)C)CC1 [OTS167]
IC50 (A2780/CDDP cells [1]; OTS167 concentration, read-out: IC50, OTS167): 0.0121 ± 0.00046 µM

CC(=O)O[C@H]1C(=O)[C@@]2(C)[C@H]([C@H](OC(=O)c3ccccc3)[C@]3(O)C[C@H](OC(=O)[C@H](O)[C@@H](NC(=O)c4ccccc4)c4ccccc4)C(C)=C1C3(C)C)[C@]1(OC(C)=O)CO[C@@H]1C[C@@H]2O [PTX, Paclitaxel]
IC50 (H460 cells): 10.8 ± 0.44 µM

O=C1[O][Pt]2([NH][C@@H]3CCCC[C@H]3[NH]2)[O]C1=O [oxaliplatin]
IC50 (MC38 cells [9]): 3.35 ± 0.13 µM
IC50 (CT26 cells [10]): 7.05 ± 0.59 µM
IC50 (MC38 cells [4]; [20]): 12.8 ± 1.32 µM
IC50 (CT26 cells [5]; [21]): 10.3 ± 1.62 µM
cell surface CRT expression (CT26 cells [11]): caused cell surface CRT expression
IC50 (MC38 cells [12]): 3.35 ± 0.13 µM
IC50 (CT26 cells [13]; CT26 (cell-line cell empty), drug ratio 2:1): 10.2 ± 0.98 µM
IC50 (CT26 cells [13]; CT26, drug ratio 1:1): 7.05 ± 0.95 µM
surface CRT expression (CT26 cells [14]): significant amounts of CRT
IC50 (CT26 cells [15]; CT26, irradiation No): 5.05 ± 0.95 µM
IC50 (CT26 cells [15]; CT26, irradiation Yes (670 nm, 54 J/cm^2)): 4.97 ± 0.49 µM
apoptosis and necrosis (CT26 cells [16]): caused necrosis
IC50 (MC38 cells [6]; [20]): 7.87 ± 1.32 µM
IC50 (CT26 cells [7]; [21]): 5.77 ± 1.06 µM
IC50 (HT29 cells; HT29, irradiation No): 1.44 ± 0.32 µM
IC50 (HT29 cells; HT29, irradiation Yes (670 nm, 54 J/cm^2)): 1.87 ± 0.31 µM
HMGB-1 release (CT26 cells [17]): HMGB-1 release
